From US12319655B2, “RAF kinase inhibitors and methods of use thereof” (Deciphera Pharmaceuticals, LLC, priority 2021, dated 2025) come the findings set out here.

For assay [1], the target named is B-Raf (V600E) (SEQ. ID NO: 4) kinase (Homo sapiens (Human), UniProt P15056, V600E). Description: Biochemical Assay for B-Raf (V600E) (1). Particulars: Table J, BRAF V600E, assay version (1); read-out: BRAF VE (1) IC50. Here is the method: Biochemical Assay for B-Raf (V600E) (1)
Activity of B-Raf (V600E) (SEQ. ID NO: 4) kinase was determined spectroscopically using a coupled pyruvate kinase/lactate dehydrogenase assay that continuously monitors the ATP hydrolysis-dependent oxidation of NADH (e.g., Schindler et al., Science, 2000, 289, 1938-1942). Assays were conducted in 384-well plates (100 μL final volume) using 0.03 nM B-Raf (SignalChem), 1.5 units pyruvate kinase, 2.1 units lactate dehydrogenase, 1 mM phosphoenol pyruvate, 0.28 mM NADH, 30.1 nM MEK (SignalChem), and 1 mM ATP in assay buffer (100 mM Tris, Ph 7.5, 15 mM MgCl2, 0.5 mM DTT, 0.1% octyl-glucoside, 0.002% (w/v) BSA, and 0.002% Triton X-100). Inhibition of B-Raf (V600E) was measured by adding serial diluted test compound (final assay concentration of 1% DMSO). A decrease in absorption at 340 nm was monitored continuously for 6 h at 30° C. on a multi-mode microplate reader (BioTek). The reaction rate was calculated using the 3 to 4 h time frame. The reaction rate at each concentration of compound was converted to percent inhibition using controls (i.e., reaction with no test compound and reaction with a known inhibitor) and IC50 values were calculated by fitting a four-parameter sigmoidal curve to the data using Prism (GraphPad software).

For assay [2], the target named is A-Raf kinase (SEQ. ID No: 1) (Homo sapiens (Human), UniProt P10398, Y301D/Y302D). Description: Biochemical Assay for A-Raf (1). Conditions: Table J, assay version (1); read-out: ARAF (1) IC50. Here is the method:
Biochemical Assay for A-Raf (1)
Activity of A-Raf kinase (SEQ. ID No: 1) was determined spectroscopically using a coupled pyruvate kinase/lactate dehydrogenase assay that continuously monitors the ATP hydrolysis-dependent oxidation of NADH (e.g., Schindler et al., Science, 2000, 289, 1938-1942). Assays were conducted in 384-well plates (100 μL final volume) using 5.55 nM A-Raf (Sigma), 1.5 units pyruvate kinase, 2.1 units lactate dehydrogenase, 1 mM phosphoenol pyruvate, 0.28 mM NADH, 30.1 nM MEK (SignalChem), and 1 mM ATP in assay buffer (100 mM Tris, pH 7.5, 15 mM MgCl2, 0.5 mM DTT, 0.1% octyl-glucoside, 0.002% (w/v) BSA, and 0.002% Triton X-100). Inhibition of A-Raf was measured by adding serial diluted test compound (final assay concentration of 1% DMSO). A decrease in absorption at 340 nm was monitored continuously for 6 h at 30° C. on a multi-mode microplate reader (BioTek). The reaction rate was calculated using the 4 to 5 h time frame. The reaction rate at each concentration of compound was converted to percent inhibition using controls (i.e., reaction with no test compound and reaction with a known inhibitor) and IC50 values were calculated by fitting a four-parameter sigmoidal curve to the data using Prism (GraphPad software).

The target of assay [3] is B-Raf kinase (SEQ. ID NO: 2) (Homo sapiens (Human), UniProt P15056). Description: Biochemical Assay for B-Raf (1). Conditions: Table J, assay version (1); read-out: BRAF (1) IC50. How it is done: Biochemical Assay for B-Raf (1)
(§1) Activity of B-Raf kinase (SEQ. ID NO: 2) was determined spectroscopically using a coupled pyruvate kinase/lactate dehydrogenase assay that continuously monitors the ATP hydrolysis-dependent oxidation of NADH (e.g., Schindler et al., Science, 2000, 289, 1938-1942). Assays were conducted in 384-well plates (100 μL final volume) using 0.13 nM B-Raf (Sigma), 1.5 units pyruvate kinase, 2.1 units lactate dehydrogenase, 1 mM phosphoenol pyruvate, 0.28 mM NADH, 30.1 nM MEK (SignalChem), and 1 mM ATP in assay buffer (100 mM Tris, Ph 7.5, 15 mM MgCl2, 0.5 mM DTT, 0.1% octyl-glucoside, 0.002% (w/v) BSA, and 0.002% Triton X-100). Inhibition of B-Raf was measured by adding serial diluted test compound (final assay concentration of 1% DMSO). A decrease in absorption at 340 nm was monitored continuously for 6 h at 30° C. on a multi-mode microplate reader (BioTek). The reaction rate was calculated using the 4 to 5 h time frame. The reaction rate at each concentration of compound was converted to percent inhibition using controls (i.e., reaction with no test compound and reaction with a known inhibitor) and IC50 values were calculated by fitting a four-parameter sigmoidal curve to the data using Prism (GraphPad software).

Assay [4] concerns the target C-Raf kinase (SEQ. ID NO: 3) (Homo sapiens (Human), UniProt P04049, Y340D/Y341D). Description: Biochemical Assay for C-Raf (1). Particulars: Table J, assay version (1); read-out: CRAF (1) IC50. How it is done:
Biochemical Assay for C-Raf (1)
as §1, with “of C-Raf” for “of B-Raf”, “NO: 3)” for “NO: 2)”, “using 0.43” for “using 0.13”, “nM C-Raf” for “nM B-Raf”

B-Raf kinase (SEQ. ID NO: 2), sequence (P15056 416-766): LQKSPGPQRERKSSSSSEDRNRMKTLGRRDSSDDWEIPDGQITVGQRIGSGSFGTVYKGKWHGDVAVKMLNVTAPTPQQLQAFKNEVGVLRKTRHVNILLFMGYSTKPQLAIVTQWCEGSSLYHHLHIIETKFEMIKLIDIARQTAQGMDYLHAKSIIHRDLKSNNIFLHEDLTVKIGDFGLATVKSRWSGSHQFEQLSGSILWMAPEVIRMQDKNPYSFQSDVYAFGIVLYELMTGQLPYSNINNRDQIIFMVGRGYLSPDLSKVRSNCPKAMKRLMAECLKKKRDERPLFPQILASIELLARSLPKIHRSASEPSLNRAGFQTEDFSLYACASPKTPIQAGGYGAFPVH
B-Raf (V600E) (SEQ. ID NO: 4) kinase, sequence (P15056 416-766 V600E): as the sequence (P15056 416-766) above, with V185E counted along it
A-Raf kinase (SEQ. ID No: 1), sequence (P10398 other isoform, or with tags, fused parts or gaps Y301D (already in the parent)/Y302D (already in the parent)): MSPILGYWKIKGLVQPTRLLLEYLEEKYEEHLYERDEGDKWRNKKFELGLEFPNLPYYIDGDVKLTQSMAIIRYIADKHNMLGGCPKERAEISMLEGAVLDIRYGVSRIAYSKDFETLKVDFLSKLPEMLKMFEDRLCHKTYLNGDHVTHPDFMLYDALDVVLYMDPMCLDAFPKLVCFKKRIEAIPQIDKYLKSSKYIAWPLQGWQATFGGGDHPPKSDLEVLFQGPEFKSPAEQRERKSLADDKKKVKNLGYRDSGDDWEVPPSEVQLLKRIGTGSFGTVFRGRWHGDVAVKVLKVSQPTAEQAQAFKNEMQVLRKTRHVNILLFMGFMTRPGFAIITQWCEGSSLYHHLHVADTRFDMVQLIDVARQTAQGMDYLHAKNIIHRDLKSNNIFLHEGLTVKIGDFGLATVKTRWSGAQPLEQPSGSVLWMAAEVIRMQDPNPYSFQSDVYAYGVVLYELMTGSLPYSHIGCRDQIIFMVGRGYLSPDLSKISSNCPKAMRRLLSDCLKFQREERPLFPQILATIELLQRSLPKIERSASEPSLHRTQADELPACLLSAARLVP
C-Raf kinase (SEQ. ID NO: 3), sequence (P04049 307-648 Y340D/Y341D): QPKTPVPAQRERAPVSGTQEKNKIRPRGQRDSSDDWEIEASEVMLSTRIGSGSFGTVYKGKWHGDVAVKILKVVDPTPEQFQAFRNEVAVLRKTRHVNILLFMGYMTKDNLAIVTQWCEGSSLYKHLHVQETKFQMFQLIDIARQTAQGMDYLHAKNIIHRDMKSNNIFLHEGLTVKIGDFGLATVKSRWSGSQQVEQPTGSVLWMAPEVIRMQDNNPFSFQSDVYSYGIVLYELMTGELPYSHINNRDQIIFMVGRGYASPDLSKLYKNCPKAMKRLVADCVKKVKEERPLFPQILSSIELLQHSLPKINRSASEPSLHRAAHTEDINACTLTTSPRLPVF

The term IC50 denotes the concentration that inhibits the measured activity by half. For the compound `COC1(C(=O)Nc2cc(-c3cccc(-c4cc(NC(=O)c5ccnc(C(C)(C)C#N)c5)ccc4C)c3)ncn2)CC1` [Example 243], the IC50 was no more than 100 nM in assay [1], 1000 to 10000 nM in assay [2], 500 to 1000 nM in assay [3] and 100 to 500 nM in assay [4].

Take `CNC(=O)c1cc(-c2cncc(-c3cc(NC(=O)c4ccnc(C(C)(C)C#N)c4)c(F)cc3C)n2)ccn1` [Example 170]: the concentration for half-maximal inhibition (IC50) was no more than 100 nM in assay [1], 1000 to 10000 nM in assay [2], 100 to 500 nM in assay [3] and 100 to 500 nM in assay [4].

For `Cc1ncc(NC(=O)C2CCC3(CC2)COC3)cc1-c1nccc(-c2ccnc(NC(=O)C3CC3)c2)n1` [Example 338], the IC50 was 500 to 1000 nM in assay [1], 1000 to 10000 nM in assay [2], 1000 to 10000 nM in assay [3] and 1000 to 10000 nM in assay [4].

For the compound `Cc1ncc(NC(=O)C2CCOCC2)cc1-c1ccnc(-c2ccnc(NC(=O)C3CC3)c2)n1` [Example 336], the IC50 lay in the range of 500 to 1000 nM in assay [1], 1000 to 10000 nM in assay [2], 1000 to 10000 nM in assay [3] and 1000 to 10000 nM in assay [4].

For the compound `Cc1ncc(NC(=O)C2CCOC2)cc1-c1cccc(-c2cc(NC(=O)C3CC3)ncn2)c1` (stereo not drawn) [Example 352], the IC50 was in the range of 500 to 1000 nM in assay [1], 1000 to 10000 nM in assay [2], 1000 to 10000 nM in assay [3] and 1000 to 10000 nM in assay [4].

For `Cc1ccc(NC(=O)c2ccnc(C3(C#N)CC3)c2)cc1-c1cncc(-c2ccnc(NC(=O)C3CC3)c2)n1` [Example 183], the IC50 was no more than 100 nM in assay [1], 100 to 500 nM in assay [2], no more than 100 nM in assay [3] and no more than 100 nM in assay [4].

In the case of `Cc1ncc(NC(=O)C2CCOCC2)cc1-c1nccc(-c2ccnc(NC(=O)C3CC3)c2)n1` [Example 339], the IC50 in assay [1] fell in the range of 100 to 500 nM; in assay [2], 1000 to 10000 nM; in assay [3], 1000 to 10000 nM; in assay [4], 1000 to 10000 nM.

For `Cc1ncc(NC(=O)C23CCC(C#N)(CC2)CC3)cc1-c1cccc(-c2ccnc(NC(=O)C3CC3)c2)n1` [Example 342], the IC50 in assay [1], in assay [2], in assay [3] and in assay [4] was 1000 to 10000 nM throughout.

For `COCC(=O)Nc1cc(-c2nccc(-c3cc(NC(=O)c4ccnc(C(F)(F)F)c4)ccc3C)n2)ccn1` [Example 137], the IC50 in assay [1] is no more than 100 nM; in assay [2], 1000 to 10000 nM; in assay [3], no more than 100 nM; in assay [4] it was no more than 100 nM.

As to `CNC(=O)c1cc(-c2cc(-c3cc(NC(=O)c4ccnc(C(F)(F)F)c4)ccc3C)nn(C)c2=O)ccn1` [Example 51], the IC50 in assay [1], in assay [2], in assay [3] and in assay [4] was 1000 to 10000 nM throughout.

Take `CC(=O)Nc1cc(-c2cc(-c3cc(NC(=O)c4ccnc(C(F)(F)F)c4)ccc3C)cc(C(C)(C)O)n2)ccn1` [Example 33]: the IC50 in assay [1] is no more than 100 nM; in assay [2] it was 1000 to 10000 nM; in assay [3], 1000 to 10000 nM; in assay [4], 100 to 500 nM.

Turning to `COC(C)(C)C(=O)Nc1cc(-c2cc(-c3cc(NC(=O)c4ccnc(C(C)(C)C#N)c4)cnc3C)ccn2)ccn1` [Example 209], the IC50 in assay [1] is 100 to 500 nM; in assay [2], 1000 to 10000 nM; in assay [3], 1000 to 10000 nM; in assay [4], 500 to 1000 nM.

As to `Cc1ccc(NC(=O)c2cc(C(F)(F)F)ccn2)cc1-c1cncc(-c2ccnc(NC(=O)C3CC3)c2)n1` [Example 167], the IC50 in assay [1] is no more than 100 nM; in assay [2], 1000 to 10000 nM; in assay [3], no more than 100 nM; in assay [4], no more than 100 nM.

With `CC(=O)Nc1cc(-c2cc(-c3cc(NC(=O)c4ccnc(C(F)(F)F)c4)ccc3C)nn(C)c2=O)ccn1` [Example 34], the IC50 in assay [1], in assay [2], in assay [3] and in assay [4] was 1000 to 10000 nM in each case.

Turning to `CNC(=O)c1cc(-c2cc(-c3cc(NC(=O)c4cc(C(F)(F)F)ccn4)ccc3C)ccn2)ccn1` [Example 126], the IC50 in assay [1] is no more than 100 nM; in assay [2] it was 1000 to 10000 nM; in assay [3], 100 to 500 nM; in assay [4] it was no more than 100 nM.
